{"source": "patent US20040156816A1", "about": "“Lipid-drug complexes in reversed liquid and liquid crystalline phases” (priority 2002, published 2004)", "details": "free acid ion-paired with arginine in Arlatone G / ginger oil / water cubic phase; overlain with large excess of water; two days", "text": "The antiosteolytic drug Alendronate (as the free acid) was incorporated into a cubic phase based on the ethoxylated, hydrogenated castor oil surfactant Arlatone G (from Uniquema).", "data": [{"smiles": "NCCCC(O)(P(=O)(O)O)P(=O)(O)O", "note": "[alendronate, Alendronate]", "values": [{"measurement": "amount of alendronate which leaked out of the cubic phase into the water", "value": "undetectable"}]}]}
